Laboratory results reported in patent US20200305471A1, “METHODS AND COMPOSITIONS FOR IMPROVING THE TASTE OF DIET COLA SODAS AND OTHER BEVERAGES” (priority 2017, published 2020).

Key:
[1] = chemicals of externally-applied lavender or tea tree oils; NIH 2018; cited from earlier work
[2] = Taste and/or aroma of Diet Coke after adding the substance (opinions of a few people); conditions: for taste and/or aroma of Diet Coke after adding the substance: substance alone added to about 220 ml (7.5 ounces) Diet Coke, room temperature
From the text: For the embodiments disclosed herein, the signifier “aroma” is used in preference to its synonyms: smell and odor (which have negative connotations), and scent (which has perfume connotations). The signifier “taste” is mostly used herein, and to a lesser extent, “flavor”, which often signifies a specific “taste”.
Taste and aroma are not separate sensory experiences. […] This is attributed to the odor sensors in the nose being blocked. […] Thus, in many of the embodiments disclosed herein, the term “taste and/or aroma” is used.
For the exemplary embodiments that follow, the examples are performed with all liquids at room temperature. Sodas typically taste more flavorful at lower temperatures (sodas retain carbonation better at lower temperatures, which creates a better taste for many people). […] Tastes and/or aromas can also vary due to the use of soda container: glass, plastic or metal. There are many who think that cola sodas taste best when consumed from glass bottles. For many of the exemplary embodiments disclosed herein, Bodum Pavina Coffee Mugs, double-wall insulated glass mugs, 8 ounce size, are used.
One embodiment of an improved diet cola beverage product is understood with the following exemplary method and resulting exemplary article of manufacture. […] Any coca leaf extract with similar chemical components to ERC-A20 can be used—coca leaf extracts discussed below.

[3] = cited from earlier work
[4] = as sweet as sucrose; cited from earlier work

C=C(C)[C@H]1CC=C(C)CC1 [limonene]
contribution to abnormal breast growth (potential hormone disruptor) [1]: probably contributed to the abnormal breast growth

C=CC(C)(O)CCC=C(C)C (centres unmarked) [linalool]
contribution to abnormal breast growth (potential hormone disruptor) [1]: probably contributed to the abnormal breast growth | taste and/or aroma of Diet Coke after adding the substance [2]: little-to-no change in the unpleasant

CC1=CCC(C(C)(C)O)CC1 (stereo not drawn) [alpha-terpineol]
contribution to abnormal breast growth (potential hormone disruptor) [1]: probably contributed to the abnormal breast growth | taste and/or aroma of Diet Coke after adding the substance [2]: more pleasant

CCOC(=O)c1ccccc1 [ethyl benzoate]
solubility in water [3]: 500 micrograms/milliliter | taste and/or aroma of Diet Coke after adding the substance [2]: more pleasant than that of untreated Diet Coke

O=C([O-])c1ccccc1.[Na+] [sodium benzoate, reference compound]
taste and/or aroma of Diet Coke after adding the substance [2]: No improvement

CC1=CCC(O)(C(C)C)CC1 (centres unmarked) [4-terpineol]
contribution to abnormal breast growth (potential hormone disruptor) [1]: probably contributed to the abnormal breast growth

C=CC(C)(CCC=C(C)C)OC(C)=O (centres unmarked) [linalyl acetate]
contribution to abnormal breast growth (potential hormone disruptor) [1]: probably contributed to the abnormal breast growth

OC[C@H]1O[C@@](CO)(O[C@H]2O[C@H](CO)[C@@H](O)[C@H](O)[C@H]2O)[C@@H](O)[C@@H]1O [sugar]
taste of resulting beverage, sweetener added together with coca leaf extract ([2]; 220 ml Diet Coke + one teaspoon coca leaf extract + sweetener (about one bag Sugar Twin; one to two bags sugar)): more pleasant tasting Diet Coke soda

OC[C@@H](O)[C@@H](O)[C@H](O)[C@@H](O)CO [sorbitol]
sweetness relative to sucrose [4]: about 60%

COC(=O)c1ccccc1 [methyl benzoate]
taste and/or aroma of Diet Coke after adding the substance [2]: improvement in Diet Coke taste similar to that of ethyl benzoate

CC12CCC(CC1)C(C)(C)O2 [eucalyptol]
contribution to abnormal breast growth (potential hormone disruptor) [1]: probably contributed to the abnormal breast growth

O=S(=O)([O-])NC1CCCCC1.[Na+] [sodium cyclamate]
taste test preference, added to Diet Coke versus added to Coca-Cola Zero ([2]; some taste tests, Diet Coke (total 2 artificial sweeteners) vs Coca-Cola Zero (3 artificial sweeteners)): more preferred

CC1=CC=C(C(C)C)CC1 [alpha-terpinene]
contribution to abnormal breast growth (potential hormone disruptor) [1]: probably contributed to the abnormal breast growth

CC1=CCC(C(C)C)=CC1 [gamma-terpinene]
taste and/or aroma of Diet Coke after adding the substance [2]: while more pleasant as seen with adding alpha-terpineol, also has less of a “coca cola” taste
